Source: patent US20140271723A1 (priority 2013, published 2014)

Legend:
[1] = test system: lymphatic intercellular junctions; details: mouse, in vivo; cited from earlier work
CRSBP-1 = CRSBP-1 (Mus musculus, UniProt Q8BHC0); details: cited from earlier work
[2] = test system: lymphatic endothelial cell (LEC) monolayers; details: cited from earlier work
pseudorabies virus (PRV) = test system: pseudorabies virus (PRV); set-up: species or system pigs; details: pig, in vivo

CRSBP-1, sequence (Q8BHC0 24-318): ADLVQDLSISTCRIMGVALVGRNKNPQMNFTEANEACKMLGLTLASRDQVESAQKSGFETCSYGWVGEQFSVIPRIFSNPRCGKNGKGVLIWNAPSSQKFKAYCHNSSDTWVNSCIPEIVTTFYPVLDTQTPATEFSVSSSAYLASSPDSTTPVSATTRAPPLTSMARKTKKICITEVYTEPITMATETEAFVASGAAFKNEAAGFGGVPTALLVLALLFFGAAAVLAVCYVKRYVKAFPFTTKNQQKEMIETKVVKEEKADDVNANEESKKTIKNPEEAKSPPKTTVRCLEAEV

| Substance | activity in control experiments as compared to VEGF peptide and PDGF peptide [1] | binding to CRSBP-1 (CRSBP-1) | disruption of VE-cadherin-mediated discontinuous intercellular adhesion and opening of intercellular junctions [2] | increase in serum antibody titer as compared to vaccine only (pseudorabies virus (PRV)) [fold] |
| --- | --- | --- | --- | --- |
| polylysine | very weak activity |  |  |  |
| KKSVRGKGKGQKRKRKKSRYKSWSV [VEGF peptide] |  | high affinity | induce disruption |  |
| YVRVRRPPKGKHRKFKHTH [PDGF peptide] |  | high affinity | induce disruption | ~4 |
| polyarginine | very weak activity |  |  |  |
